Here are results for two compounds from patent US20180353512A1, “COMBINATION THERAPIES FOR TREATING B-CELL MALIGNANCIES” (GILEAD SCIENCES, INC., priority 2015, published 2018).

Where two headings read alike, the source gives them in different places.

For orientation: inhibition means the relative decrease from the control value, in per cent. A word on the EC50: it is the concentration at which the effect is half-maximal. One may read the Cmax as the peak of the concentration-time curve.

The subject of one data set is p-S6 (S235/236). In words: Western Blot of TMD8 xenograft tumor samples. As to conditions: single agent; PI3Kδ inhibitor 5 mg/kg, Compound B 10 mg/kg. Format: in vivo, mice. How it is done: (§1) Tumor samples obtained from the study were lysed and Western Blot was performed on the samples to determine the level of BTK and S6 phosphorylation, a downstream effector of PI3K signaling. Western Blots were performed according to the Western Blot procedure described in Example 3B above, using antibodies against p-S6 (S235/236), p-BTK (Y223), BTK and actin. Protein levels were determined using Peggy Sue (ProteinSimple) automated Western Blot system. Normalized AUC were determined for each of the treatment groups: p-BTK (Y223) was normalized to total BTK protein, and p-S6 (S235/236) was normalized to actin.

A further data set relates to p-BTK (Y223). Put plainly: Western Blot of TMD8 xenograft tumor samples. Type of data set: in vivo, mice. The following applies: Compound B 10 mg/kg; normalized to total BTK. As for the experimental part: as §1
In general terms: Immunoblotting shows a protein as a band on a membrane.

Data set [1] concerns TMD8^R (Idelalisib-resistant line). In words: CellTiter-Glo viability assay at 96 h. Format: cell-based. As to conditions: TMD8^R. As for the experimental part: (§2) Growth inhibition to Idelalisib or other inhibitors was assessed using CellTiter-Glo viability assay at 96 h. […] Cell lines were analyzed by whole exome sequencing, RNASeq, and phosphoproteomics. Protein expression was measured using Simple Western and SDS/PAGE and western blot. Caspase 3/7 was measured using Caspase-Glo 3/7 assay; apoptosis was measured with Annexin V assay and propidium iodide by flow cytometry.
(§3) Cell viability EC50 was determined using a sigmoidal dose-response (variable slope) curve generated from quadruplicate samples. Statistical significance was determined using the student's t-test for cell viability and two-tailed paired t-test for apoptosis experiments in Prism (GraphPad).
Idelalisib-resistant (TMD8^R) cell line and passage-matched Idelalisib-sensitive (TMD8^S) cell line were generated according to the procedure described in Example 5 above. To characterize the resistant cells, cell viability assays, RNASeq of multidrug resistance (MDR) family of ABC transporter genes (N=33), apoptosis assays, and phosphoprotein analysis were performed. Cell viability was measured using CellTiter-Glo, as described in Example 1A above. Western blot and protein level analysis were performed after treatment with 420 nM idelalisib, 320 nM Compound B and combination thereof, using Peggy Sue (ProteinSimple) automated Western Blot system. Protein concentration (pg/μL) was quantitated using recombinant protein standards. Normalized AUC were determined for each of the treatment groups, normalized to actin. Apoptosis was assessed by propidium iodide and Annexin V/FITC staining and measured by flow cytometry, as described in Example 1A above. Western Blot with anti-p-AKT (S473) antibody and Peggy Sue were used to determine the phosphorylation state of downstream signaling components.
(In general: ATP-based viability assays read luminescence as a measure of living cells.)

Data set [2] deals with FSCCL^R clone 3 (PI3KCA P539R). In words: CellTiter Glo viability assay after 96 h. Format: cell-based. The following applies: single agent, read-out: EC50. As for the experimental part:
(§4) Idelalisib resistance was established by continuous passaging of a clonal isolate of WSU-FSCCL in the presence of 1 μM idelalisib; clonal isolates from a passage-matched line (FSCCL^S) and idelalisib-resistant line (FSCCL^R) were generated through 2 rounds of single-cell-limiting dilution. Growth inhibition to idelalisib or other inhibitors was performed after 96 h using CellTiter Glo viability assay. Characterization of mutations and gene expression were identified by whole exome sequencing and RNA-Seq, respectively. Whole cell lysates were analyzed by western blots.

A further data set concerns FSCCL^R. In words: CellTiter Glo viability assay after 96 h. The following applies: FIG. 16, read-out: EC50, cell viability. Type of data set: cell-based. As for the experimental part:
as §4

The subject of a further data set is FSCCL (WSU-FSCCL). In words: CellTiter Glo viability assay after 96 h. Type of data set: cell-based. As to conditions: read-out: EC50, cell viability. How it is done:
as §4

Data set [3] has as its system FSCCL^R clone 1 (PI3KCA E970K). In words: CellTiter Glo viability assay after 96 h. Type of data set: cell-based. The following applies: single agent, read-out: EC50. How it is done:
as §4

The test system of the next data set is FSCCL^R SFK^HIGH. In words: CellTiter Glo viability assay after 96 h. Type of data set: cell-based. How it is done: as §4
For data set [4], the system named is FSCCL^R clone 2 (PI3KCA N345K). In words: CellTiter Glo viability assay after 96 h. As to conditions: single agent, read-out: EC50. Format: cell-based. How it is done: as §4
Another data set concerns FSCCL^S. In words: CellTiter Glo viability assay after 96 h. Format: cell-based. As for the experimental part:
as §4

For data set [5] the following is noted: cited from earlier work.
A further data set relates to TMD8. Put plainly: CellTiter-Glo viability assay at 96 h (Example 5). Type of data set: cell-based. The following applies: Homo sapiens. As for the experimental part:
as §2, §3

For a further data set, the system named is TMD8^R cells. In words: Apoptosis, Annexin V assay and propidium iodide by flow cytometry. Type of data set: cell-based. As to conditions: Annexin V at 48 h, Idelalisib=1 μM. As for the experimental part: as §2
(A flow cytometer gives signals particle by particle.)

Turning to `CC#CC(=O)N1CC[C@@H](n2c(=O)n(-c3ccc(Oc4ccccc4)cc3)c3c(N)ncnc32)C1` [Compound B, 6-amino-9-[(3R)-1-(2-butynoyl)-3-pyrrolidinyl]-7-(4-phenoxyphenyl)-7,9-dihydro-8H-purin-8-one], the “effect on p-S6 in tumors” value in the data set with p-S6 (S235/236) is “did not have an effect”. In the data set with p-BTK (Y223), the “reduction of p-BTK in tumors” value is recorded as 35%.

Regarding `CCC(Nc1ncnc2[nH]cnc12)c1nc2cccc(F)c2c(=O)n1-c1ccccc1` (centres unmarked) [Idelalisib, 2-(1-((9H-Purin-6-yl)amino)propyl)-5-fluoro-3-phenylquinazolin-4(3H)-one], in [1] (at 1 μM, read-out: Growth inhibition), the inhibition at 1 µM was determined as 19%. Further, the EC50 in data set [1] (single agent, read-out: EC50, cell viability) is greater than 10 µM; in [2] it was greater than 3000 nM; with FSCCL^R, greater than 10 µM; in the data set with FSCCL (WSU-FSCCL) it was 140 nM; in [3], greater than 3000 nM; in the data set with FSCCL^R SFK^HIGH (read-out: EC50 IDELA (+Dasatinib 10 nM)), 1880 nM. The concentration for a half-maximal effect (EC50) was 2270 nM in the data set with FSCCL^R SFK^HIGH (read-out: EC50 IDELA (+ENTO 680 nM)); greater than 3000 nM in data set [4]; 100 nM in the data set with FSCCL^S (FIG. 16, read-out: EC50, cell viability); 110 nM in the data set with FSCCL^S (PI3KCA WT, Table 13, single agent, read-out: EC50); 213 nM with FSCCL^S (Table 14, single agent, read-out: EC50); 213 nM in the data set on FSCCL^S (Table 15, single agent, read-out: EC50). A half-maximal response with TMD8 (EC50) required 42 nM. In data set [5], the “clinical Cmin” value is given as 103 nM. For the same compound, the maximum concentration (Cmax) in data set [5] (clinical) was 591 nM. Besides, the apoptosis is 24% in the data set with TMD8^R cells (GSK-2334470=1 μM, vehicle control 22%) and 21% in the data set with TMD8^R cells (MK-2206=1 μM, vehicle control 24%).
